# Source: patent US5496947A, “Quinolone carboxylic acid derivatives” (Dong Wha Pharmaceutical Industrial Co., Ltd., priority 1994, dated 1996)
# Where two headings read alike, the source gives them in different places.
# Assays:
# Assay type in all cases: cell-based
# [1] = tested on: Shigella sonnei ATCC 25931; assay: MIC, 2-fold dilution method in micro-well plate, S. sonnei; details: S. sonnei ATCC25931, 37° C., read-out: Minimum Inhibitory Concentration
# Protocol: (§1) The in vitro antibiotic activity of the present compound is measured using 2-fold dilution method with a micro-well plate and the bacteria are inoculated in about 10^5 cfu/ml after an overnight culture in a brain-heart infusion (BHI) broth at 37° C. The novel compounds of the present invention are converted to a hydrochloride salt form and diluted with a sterilized distilled water to make 10 mg/ml aqueous solution. After the mother liquor wherein the compound is diluted to the two-fold concentration has been obtained in the form of an aqueous solution, the respective 0.1 ml of diluted liquor is transferred to a well and is inoculated with 0.1 ml of the culture fluid to make about (10^5 -10^6)/2 cfu/ml.
# (§2) After cultivation at 37° C., the minimum inhibitory concentration (MIC) is measured and recorded in Table I-V.
# (§3) Table I-V show the minimum inhibitory concentrations (MIC).
# Shigella sonnei ATCC 25931
# [2] = tested on: Salmonella typhimurium ATCC 14028; assay: MIC, 2-fold dilution method in micro-well plate, S. typhimurium; details: Salmonella enterica, read-out: Minimum Inhibitory Concentration
# Protocol: as §1, §2, §3
# Salmonella typhimurium ATCC 14028
# [3] = tested on: Serratia marcescens ATCC 8100; assay: MIC, 2-fold dilution method in micro-well plate, S. marcescens
# Protocol: as §1, §2, §3
# Serratia marcescens ATCC 8100
# Enterobacter cloacae = assay: MIC, 2-fold dilution method in micro-well plate, E. cloacae; details: read-out: Minimum Inhibitory Concentration
# Protocol: as §1, §2, §3
# Enterobacter cloacae ATCC 23355
# [4] = tested on: Streptococcus faecalis ATCC 19433; assay: MIC, 2-fold dilution method in micro-well plate, S. faecalis ATCC 19433; details: Enterococcus faecalis; S. faecalis ATCC19433, 37° C.; read-out: Minimum Inhibitory Concentration
# Protocol: as §1, §2, §3
# Streptococcus faecalis ATCC 19433
# [5] = tested on: Enterobacter aerogenes ATCC 13048; assay: MIC, 2-fold dilution method in micro-well plate, E. aerogenes; details: Klebsiella aerogenes
# Protocol: as §1, §2, §3
# Enterobacter aerogenes ATCC 13048
# [6] = tested on: Klebsiella pneumoniae ATCC 13883; assay: MIC, 2-fold dilution method in micro-well plate, K. pneumoniae
# Protocol: as §1, §2, §3
# Klebsiella pneumoniae ATCC 13883
# [7] = tested on: Shigella flexneri ATCC 12022; assay: MIC, 2-fold dilution method in micro-well plate, S. flexneri; details: S. flexneri ATCC12022, 37° C., read-out: Minimum Inhibitory Concentration
# Protocol: as §1, §2, §3
# Shigella flexneri ATCC 12022
# [8] = tested on: Escherichia coli ATCC 25922; assay: MIC, 2-fold dilution method in micro-well plate, E. coli
# Protocol: as §1, §2, §3
# Escherichia coli ATCC 25922
# [9] = tested on: Streptococcus pyrogens ATCC 19615; assay: MIC, 2-fold dilution method in micro-well plate, S. pyrogens; details: S. pyrogenes ATCC19615, 37° C., read-out: Minimum Inhibitory Concentration
# Protocol: as §1, §2, §3
# Streptococcus pyrogens ATCC 19615
# [10] = tested on: Haemophilus influenza ATCC 35056; assay: MIC, 2-fold dilution method in micro-well plate, H. influenzae; details: H. influenzae ATCC35056, 37° C.; read-out: Minimum Inhibitory Concentration
# Protocol: as §1, §2, §3
# Haemophilus influenza ATCC 35056
# [11] = tested on: Proteus vulgaris ATCC 13315; assay: MIC, 2-fold dilution method in micro-well plate, P. vulgaris
# Protocol: as §1, §2, §3
# Proteus vulgaris ATCC 13315
# [12] = tested on: Streptococcus pneumoniae ATCC 6303; assay: MIC, 2-fold dilution method in micro-well plate, S. pneumoniae; details: S. pneuinoniae ATCC6303, 37° C., read-out: Minimum Inhibitory Concentration
# Protocol: as §1, §2, §3
# Streptococcus pneumoniae ATCC 6303
# [13] = tested on: Pseudomonas aeruginosa ATCC 27853; assay: MIC, 2-fold dilution method in micro-well plate, P. aeruginosa
# Protocol: as §1, §2, §3
# Pseudomonas aeruginosa ATCC 27853
# [14] = tested on: Streptococcus faecalis ATCC 29212; assay: MIC, 2-fold dilution method in micro-well plate, S. faecalis ATCC 29212; details: Enterococcus faecalis; S. faecalis ATCC29212, 37° C.; read-out: Minimum Inhibitory Concentration
# Protocol: as §1, §2, §3
# Streptococcus faecalis ATCC 29212
# [15] = tested on: Acinetobacter calcoaceticus; assay: MIC, 2-fold dilution method in micro-well plate, A. calcoaceticus
# Protocol: as §1, §2
# Table I-V show the minimum inhibitory concentrations (MIC). […]
# [16] = tested on: Citrobacter freundii ATCC 8090; assay: MIC, 2-fold dilution method in micro-well plate, C. freundii
# Protocol: as §1, §2, §3
# Citrobacter freundii ATCC 8090
# [17] = ATCC8100, read-out: Minimum Inhibitory Concentration
# [18] = ATCC13048, read-out: Minimum Inhibitory Concentration
# [19] = ATCC13883, read-out: Minimum Inhibitory Concentration
# [20] = ATCC25922, read-out: Minimum Inhibitory Concentration
# [21] = ATCC13315, read-out: Minimum Inhibitory Concentration
# [22] = ATCC27853, read-out: Minimum Inhibitory Concentration
# [23] = A. calcoaceticus ATCC8090 (as in tables), 37° C., read-out: Minimum Inhibitory Concentration
# [24] = ATCC8090, read-out: Minimum Inhibitory Concentration
# [25] = S. marcescens ATCC8100, 37° C., read-out: Minimum Inhibitory Concentration
# [26] = E. aerogenes ATCC13048, 37° C., read-out: Minimum Inhibitory Concentration
# [27] = E. coli ATCC25922, 37° C., read-out: Minimum Inhibitory Concentration
# [28] = C. freundii ATCC8090, 37° C., read-out: Minimum Inhibitory Concentration
# [29] = P. vulgaris ATCC13315, 37° C., read-out: Minimum Inhibitory Concentration
# [30] = P. aerugirnosa ATCC27853, 37° C., read-out: Minimum Inhibitory Concentration
# [31] = S. typhisurium ATCC14028, 37° C.
# [32] = E. cloacae ATCC23355 (as in tables), 37° C.
# [33] = K. pneumoniae ATCC13883, 37° C., read-out: Minimum Inhibitory Concentration
Structure (SMILES),MIC [1] [µg/mL],MIC [2] [µg/mL],"MIC [3, 17] [µg/mL]",MIC (Enterobacter cloacae) [µg/mL],MIC [4] [µg/mL],"MIC [5, 18] [µg/mL]","MIC [6, 19] [µg/mL]",MIC [7] [µg/mL],"MIC [8, 20] [µg/mL]",MIC [9] [µg/mL],MIC [10] [µg/mL],"MIC [11, 21] [µg/mL]",MIC [12] [µg/mL],MIC [14] [µg/mL],"MIC [15, 23] [µg/mL]","MIC [16, 24] [µg/mL]","MIC [3, 25] [µg/mL]","MIC [8, 27] [µg/mL]","MIC [11, 29] [µg/mL]","MIC [13, 30] [µg/mL]",further results
"CC1CN(c2nc3c(cc2F)c(=O)c(C(=O)O)cn3-c2ccncc2F)CCN1.Cl (stereo not drawn) [Example 9, 1-(3-fluoro-4-pyridyl)-6-fluoro-7-(3-methyl-1-piperazinyl)-1,4-dihydro-4-oxo-1,8-naphthyridine-3-carboxylic acid hydrochloride]",0.625,0.625,1.25,0.625,2.5,0.625,1.25,0.625,0.625,10,1.25,0.625,5,2.5,10,1.25,,,,,"MIC [13, 22]: 0.625 µg/mL"
"CC1CN(c2nc3c(cc2F)c(=O)c(C(=O)O)cn3-c2ccncc2F)CC(C)N1.Cl (stereo not drawn) [Example 10, 1-(3-fluoro-4-pyridyl)-6-fluoro-7-(3,5-dimethyl-1-piperazinyl)-1,4-dihydro-4-oxo-1,8-naphthyridine-3-carboxylic acid hydrochloride]",0.625,0.625,,0.625,2.5,,0.625,0.625,,10,0.625,0.625,5,5,10,,2.5,1.25,,,"MIC [5, 26]: 1.25 µg/mL; MIC [13, 22]: 0.25 µg/mL; MIC [16, 28]: 1.25 µg/mL"
"Cl.N[C@H]1CCN(c2nc3c(cc2F)c(=O)c(C(=O)O)cn3-c2ccncc2F)C1 [Example 11, 1-(3-fluoro-4-pyridyl)-6-fluoro-7-[(3S)-3-amino-1-pyrrolidinyl]-1,4-dihydro-4-oxo-1,8-naphthyridine-3-carboxylic acid hydrochloride]",0.01,0.156,0.156,0.156,0.625,0.156,0.156,0.156,,2.5,0.156,,1.25,0.625,1.25,0.156,,0.078,0.313,,"MIC [13, 22]: 0.156 µg/mL"
"Cl.O=C(O)c1cn(-c2ccc(F)cn2)c2nc(N3CCNCC3)c(F)cc2c1=O [Example 12, 1-(5-fluoro-2-pyridyl)-6-fluoro-7-(1-piperazinyl)-1,4-dihydro-4-oxo-1,8-naphthyridine-3-carboxylic acid hydrochloride]",0.313,1.25,1.25,0.625,5,0.625,0.625,0.625,0.313,5,1.25,0.625,5,5,,1.25,,,,1.25,"MIC [15, 24]: 0.625 µg/mL"
"CC1CN(c2nc3c(cc2F)c(=O)c(C(=O)O)cn3-c2ccc(F)cn2)CC(C)N1.Cl (stereo not drawn) [Example 15, 1-(5-fluoro-2-pyridyl)-6-fluoro-7-(3,5-dimethyl-1-piperazinyl)-1,4-dihydro-4-oxo-1,8-naphthyridine-3-carboxylic acid hydrochloride]",0.078,,,,5,,,0.313,,10,2.5,,10,5,0.625,0.313,1.25,0.625,1.25,1.25,"MIC [2, 31]: 1.25 µg/mL; MIC (Enterobacter cloacae; [32]): 0.625 µg/mL; MIC [5, 26]: 1.25 µg/mL; MIC [6, 33]: 0.625 µg/mL"
"Cl.NC1CCN(c2nc3c(cc2F)c(=O)c(C(=O)O)cn3-c2ccc(F)cn2)C1 (stereo not drawn) [Example 16, 1-(5-fluoro-2-pyridyl)-6-fluoro-7-(3-amino-1-pyrrolidinyl)-1,4-dihydro-4-oxo-1,8-naphthyridine-3-carboxylic acid hydrochloride]",0.02,,,,1.25,,,0.039,,2.5,0.078,,1.25,0.625,0.156,,0.078,0.078,0.078,0.156,"MIC [2, 31]: 0.313 µg/mL; MIC (Enterobacter cloacae; [32]): 0.156 µg/mL; MIC [5, 26]: 0.313 µg/mL; MIC [6, 33]: 0.078 µg/mL; MIC [16, 28]: 0.078 µg/mL"
"Cl.O=C(O)c1cn(-c2ccc(F)cn2)c2cc(N3CCNCC3)c(F)cc2c1=O [Example 17, 1-(5-fluoro-2-pyridyl)-6-fluoro-7-(1-piperazinyl)-1,4-dihydro-4-oxoquinoline-3-carboxylic acid hydrochloride]",0.625,1.25,,1.25,5,1.25,0.625,0.625,,5,1.25,0.625,5,2.5,2.5,1.25,2.5,0.313,,1.25,
"CC1CN(c2cc3c(cc2F)c(=O)c(C(=O)O)cn3-c2ccc(F)cn2)CC(C)N1.Cl (stereo not drawn) [Example 20, 1-(5-fluoro-2-pyridyl)-6-fluoro-7-(3,5-dimethyl-1-piperazinyl)-1,4-dihydro-4-oxoquinoline-3-carboxylic acid hydrochloride]",0.313,1.25,0.625,0.625,5,1.25,0.625,0.625,0.625,10,1.25,0.625,5,2.5,,0.625,,,,1.25,"MIC [15, 24]: 1.25 µg/mL"
"Cl.NC1CCN(c2cc3c(cc2F)c(=O)c(C(=O)O)cn3-c2ccc(F)cn2)C1 (stereo not drawn) [Example 21, 1-(5-fluoro-2-pyridyl)-6-fluoro-7-(3-amino-1-pyrrolidinyl)-1,4-dihydro-4-oxoquinoline-3-carboxylic acid hydrochloride]",0.02,0.156,,0.156,1.25,0.156,,0.078,,2.5,0.078,,2.5,1.25,,,0.078,0.078,0.078,0.313,"MIC [6, 33]: 0.078 µg/mL; MIC [15, 24]: 0.156 µg/mL; MIC [16, 28]: 0.078 µg/mL"
